The target in the test is T1, Cholesteryl ester transfer protein (Homo sapiens, UniProt P11597).
T1 sequence (P11597 whole entry): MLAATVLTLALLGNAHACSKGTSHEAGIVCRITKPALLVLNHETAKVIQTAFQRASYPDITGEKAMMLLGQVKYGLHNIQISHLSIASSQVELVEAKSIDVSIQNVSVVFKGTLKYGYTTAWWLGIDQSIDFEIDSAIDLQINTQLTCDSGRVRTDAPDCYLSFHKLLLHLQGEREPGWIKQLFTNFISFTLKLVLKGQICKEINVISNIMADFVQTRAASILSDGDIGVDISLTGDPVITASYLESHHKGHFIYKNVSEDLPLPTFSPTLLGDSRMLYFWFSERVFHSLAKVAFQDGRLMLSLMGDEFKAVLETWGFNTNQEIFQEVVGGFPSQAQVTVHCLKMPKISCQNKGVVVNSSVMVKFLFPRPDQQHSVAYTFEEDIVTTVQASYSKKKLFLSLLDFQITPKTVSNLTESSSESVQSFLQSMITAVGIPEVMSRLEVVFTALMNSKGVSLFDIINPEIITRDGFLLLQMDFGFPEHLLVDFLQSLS
The experiment in a line: Inhibition of CETP.
With `OC(CN(Cc1cccc(OC(F)(F)F)c1)c1cccc(Oc2ccccc2)c1)c1ccccc1` (centres undefined), the IC50 (in general, the point on the concentration scale where inhibition reaches its midpoint) was determined as 50000 nM.

As to `OC(CN(Cc1cccc(OC(F)(F)C(F)F)c1)c1cccc(Oc2ccc(F)c(F)c2)c1)C(F)(F)F` (centres undefined), it took 80 nM to reach half-maximal inhibition (IC50). `Cc1cc(C)cc(Oc2cccc(CN(CC(O)C(F)(F)F)c3cccc(Oc4ccccc4)c3)c2)c1` (centres undefined) showed an IC50 of 70 nM. As for `OC(CN(Cc1cccc2c1OC(F)(F)C(F)(F)O2)c1cccc(Oc2ccccc2)c1)C(F)(F)F` (centres undefined), the figure is 12000 nM; as for `OC(CN(Cc1cccc(OC(F)(F)C(F)F)c1)c1cccc(OCc2ccccc2CC(F)(F)F)c1)C(F)(F)F` (centres undefined), 90 nM.

Compound `CCCCC(O)CN(Cc1cccc(OC(F)(F)F)c1)c1cccc(Oc2ccccc2)c1` (centres undefined) displayed an IC50 of 3600 nM. In the case of `OC(CN(Cc1cccc(OC(F)(F)C(F)F)c1)c1cccc(Oc2cccc(CC(F)(F)F)c2)c1)C(F)(F)F` (centres undefined), inhibition was half-maximal at 30 nM (IC50). The compound `CCCCc1ccc(Oc2cccc(N(Cc3cccc(OC(F)(F)C(F)F)c3)CC(O)C(F)(F)F)c2)cc1` (centres undefined) yielded an IC50 of 200 nM. In turn, `OC(CN(Cc1cccc(OC(F)(F)C(F)F)c1)c1cccc(OCc2ccccc2OC(F)(F)F)c1)C(F)(F)F` (centres undefined) had a half-maximal inhibitory concentration (IC50) of 60 nM. `OC(CN(Cc1cccc(-c2cccc(C(F)(F)F)n2)c1)c1cccc(Oc2ccccc2)c1)C(F)(F)F` (centres undefined): the half-maximal inhibitory concentration (IC50) was 4080 nM.

In turn, `Cc1cccc(-c2cccc(CN(CC(O)C(F)(F)F)c3cccc(Oc4ccccc4)c3)c2)n1` (centres undefined) had an IC50 of 15000 nM. `CC(C)(O)c1cccc(N(Cc2cccc(OC(F)(F)C(F)F)c2)CC(O)C(F)(F)F)c1` (centres undefined) displayed an IC50 of 7800 nM. Turning to `OC(CN(Cc1cccc(OC(F)(F)C(F)F)c1)c1cccc(-c2ccncc2)c1)C(F)(F)F` (centres undefined), the IC50 was 6240 nM. For `CC(C)(C)c1cccc(Oc2cccc(N(Cc3cccc(OC(F)(F)C(F)F)c3)CC(O)C(F)(F)F)c2)c1` (centres undefined), the half-maximal inhibitory concentration (IC50) worked out at 100 nM.

Values taken from ChEMBL document CHEMBL1149646, “2D Quantitative structure-activity relationship studies on a series of cholesteryl ester transfer protein inhibitors” (Bioorg Med Chem, 2007).
